The record followed here is ChEMBL document CHEMBL3621059, “Discovery of 4-Aryl-5,6,7,8-tetrahydroisoquinolines as Potent, Selective, and Orally Active Aldosterone Synthase (CYP11B2) Inhibitors: In Vivo Evaluation in Rodents and Cynomolgus Monkeys” (J Med Chem, 2015).

Each structure is given as a SMILES string. pIC50: −log10 of the molar value. ≈ marks a conversion by molar mass, not a printed value. Calls of active or inactive are those of the source. No cut-off for these calls is given here.

Data set [1] addresses T1, Cytochrome P450 11B2, mitochondrial (Homo sapiens, UniProt P19099).
T1 sequence (P19099 whole entry): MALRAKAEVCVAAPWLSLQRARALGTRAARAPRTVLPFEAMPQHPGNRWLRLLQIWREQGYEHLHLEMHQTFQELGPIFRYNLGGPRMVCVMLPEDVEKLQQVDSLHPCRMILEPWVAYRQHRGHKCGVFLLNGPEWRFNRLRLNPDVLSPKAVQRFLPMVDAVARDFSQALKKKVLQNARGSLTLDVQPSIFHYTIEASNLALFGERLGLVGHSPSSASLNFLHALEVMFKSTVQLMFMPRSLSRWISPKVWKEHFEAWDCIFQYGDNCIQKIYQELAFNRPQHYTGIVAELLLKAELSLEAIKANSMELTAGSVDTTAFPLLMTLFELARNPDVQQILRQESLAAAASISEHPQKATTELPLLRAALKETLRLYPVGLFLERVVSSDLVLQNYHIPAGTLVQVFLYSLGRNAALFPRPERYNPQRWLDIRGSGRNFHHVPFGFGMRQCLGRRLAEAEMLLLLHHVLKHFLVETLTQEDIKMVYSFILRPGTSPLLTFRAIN
Description: Inhibition of human CYP11B2 expressed in human renal leiomyoblastoma cells using 11-deoxycorticosterone as substrate assessed as formation of aldosterone after 16 hrs by HTRF assay

The conditions of data set [2]: mouse, microsomes.
Description: Clearance in mouse microsomes assessed per mg of protein
The conditions of data set [3]: human, microsomes.
Description: Clearance in human microsomes assessed per mg of protein
For data set [4] the following is noted: rat, microsomes.
Description: Clearance in rat microsomes assessed per mg of protein
For data set [5], the target named is T2, Cytochrome P450 11B2, mitochondrial (Rattus norvegicus, UniProt P30099).
T2 sequence (P30099 whole entry): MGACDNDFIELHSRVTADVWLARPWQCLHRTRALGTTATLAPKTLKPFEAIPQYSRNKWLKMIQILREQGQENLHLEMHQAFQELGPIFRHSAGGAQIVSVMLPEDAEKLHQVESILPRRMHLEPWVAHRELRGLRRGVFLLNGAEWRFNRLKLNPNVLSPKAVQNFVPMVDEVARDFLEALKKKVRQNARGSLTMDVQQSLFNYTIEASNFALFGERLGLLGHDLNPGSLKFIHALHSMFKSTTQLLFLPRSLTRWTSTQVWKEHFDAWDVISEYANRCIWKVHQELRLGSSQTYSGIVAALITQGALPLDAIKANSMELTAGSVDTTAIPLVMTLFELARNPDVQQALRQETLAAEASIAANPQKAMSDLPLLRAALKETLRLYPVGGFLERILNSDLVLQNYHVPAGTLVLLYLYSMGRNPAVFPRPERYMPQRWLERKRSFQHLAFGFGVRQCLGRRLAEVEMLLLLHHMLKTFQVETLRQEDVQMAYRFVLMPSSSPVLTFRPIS
The data set is described as follows: Inhibition of rat CYP11B2 expressed in renal leiomyoblastoma cells at 500 nM relative to control. The data set is classed as cell-based.

For data set [6], the species on record is Rattus norvegicus. The data set is described as follows: Induction of improvement in renal histology in angiotension-2 ZSF1 rat infusion model. The class given is functional, organism-based.
The species named for data set [7] is Rattus norvegicus. The data set is described as follows: Reduction of aldosterone level in angiotension-2 ZSF1 rat infusion model. The data set is classed as functional, organism-based.
Data set [8] is filed under the species Rattus norvegicus. The data set is described as follows: Induction of improvement in glomerular filtration rate in angiotension-2 ZSF1 rat infusion model. The data set is classed as functional, organism-based.
The target of data set [9] is Cytochrome P450 3A4 (Homo sapiens, UniProt P08684).
Cytochrome P450 3A4, sequence (P08684 whole entry): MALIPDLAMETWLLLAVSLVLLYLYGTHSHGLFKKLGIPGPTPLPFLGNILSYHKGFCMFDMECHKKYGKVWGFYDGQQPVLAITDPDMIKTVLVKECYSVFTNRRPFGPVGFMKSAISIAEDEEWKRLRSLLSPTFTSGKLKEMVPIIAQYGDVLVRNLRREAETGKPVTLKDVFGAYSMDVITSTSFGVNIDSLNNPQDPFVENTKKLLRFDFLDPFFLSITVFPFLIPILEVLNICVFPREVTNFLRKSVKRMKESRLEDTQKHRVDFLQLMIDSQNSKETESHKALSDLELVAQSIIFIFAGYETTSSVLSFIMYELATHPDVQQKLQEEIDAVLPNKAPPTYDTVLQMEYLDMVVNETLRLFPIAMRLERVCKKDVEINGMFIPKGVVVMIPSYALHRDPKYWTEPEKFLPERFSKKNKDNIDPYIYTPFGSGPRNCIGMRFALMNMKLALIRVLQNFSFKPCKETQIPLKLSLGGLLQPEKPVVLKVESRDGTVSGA
Description: Inhibition of CYP3A4 (unknown origin)
The target of data set [10] is Cytochrome P450 2D6 (Homo sapiens, UniProt P10635).
Cytochrome P450 2D6, sequence (P10635 whole entry): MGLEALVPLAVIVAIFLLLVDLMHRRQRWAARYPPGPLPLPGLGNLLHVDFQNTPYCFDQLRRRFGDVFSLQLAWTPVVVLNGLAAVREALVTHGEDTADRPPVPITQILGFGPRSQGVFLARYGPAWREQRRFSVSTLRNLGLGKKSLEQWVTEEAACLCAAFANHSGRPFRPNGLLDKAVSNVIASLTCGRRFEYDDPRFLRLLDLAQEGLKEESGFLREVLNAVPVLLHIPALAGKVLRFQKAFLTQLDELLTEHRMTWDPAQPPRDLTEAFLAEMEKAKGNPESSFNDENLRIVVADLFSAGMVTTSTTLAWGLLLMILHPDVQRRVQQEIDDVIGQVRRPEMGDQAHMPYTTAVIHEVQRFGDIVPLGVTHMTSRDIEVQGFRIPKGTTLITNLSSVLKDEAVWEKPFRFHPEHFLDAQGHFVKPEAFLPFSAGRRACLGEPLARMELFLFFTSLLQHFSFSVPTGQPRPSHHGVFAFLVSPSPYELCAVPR
Description: Inhibition of CYP2D6 (unknown origin)
The target of data set [11] is Cytochrome P450 2C9 (Homo sapiens, UniProt P11712).
Cytochrome P450 2C9, sequence (P11712 whole entry): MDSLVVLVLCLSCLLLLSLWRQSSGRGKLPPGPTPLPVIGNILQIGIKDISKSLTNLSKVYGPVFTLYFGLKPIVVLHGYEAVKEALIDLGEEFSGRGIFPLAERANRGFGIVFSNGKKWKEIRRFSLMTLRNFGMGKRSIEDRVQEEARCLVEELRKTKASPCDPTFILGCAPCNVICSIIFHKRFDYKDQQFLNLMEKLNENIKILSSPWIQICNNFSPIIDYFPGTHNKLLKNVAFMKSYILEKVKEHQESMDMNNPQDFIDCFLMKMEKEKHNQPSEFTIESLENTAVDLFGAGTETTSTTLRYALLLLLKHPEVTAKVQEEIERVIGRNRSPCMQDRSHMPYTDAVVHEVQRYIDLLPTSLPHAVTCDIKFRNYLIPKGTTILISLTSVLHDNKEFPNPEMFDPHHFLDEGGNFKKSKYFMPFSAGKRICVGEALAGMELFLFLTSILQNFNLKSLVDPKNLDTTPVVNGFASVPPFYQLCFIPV
Description: Inhibition of CYP2C9 (unknown origin)
Data set [12] can be described thus: physchem. To be noted: 1-octanol/TAPSO buffer, pH 7.4.
A short description of data set [13]: physchem. To be noted: phosphate buffer, pH 6.5.
Description: Aqueous solubility of the compound in phosphate buffer at pH 6.5 by LYSA method
A short description of data set [14]: physchem. To be noted: PAMPA. Background: In PAMPA a lipid-coated filter parts donor from acceptor wells.
Description: Permeability of the compound by PAMPA
For data set [15], the target named is T3, Cytochrome P450 11B2, mitochondrial (Mus musculus, UniProt P15539).
T3 sequence (P15539 whole entry): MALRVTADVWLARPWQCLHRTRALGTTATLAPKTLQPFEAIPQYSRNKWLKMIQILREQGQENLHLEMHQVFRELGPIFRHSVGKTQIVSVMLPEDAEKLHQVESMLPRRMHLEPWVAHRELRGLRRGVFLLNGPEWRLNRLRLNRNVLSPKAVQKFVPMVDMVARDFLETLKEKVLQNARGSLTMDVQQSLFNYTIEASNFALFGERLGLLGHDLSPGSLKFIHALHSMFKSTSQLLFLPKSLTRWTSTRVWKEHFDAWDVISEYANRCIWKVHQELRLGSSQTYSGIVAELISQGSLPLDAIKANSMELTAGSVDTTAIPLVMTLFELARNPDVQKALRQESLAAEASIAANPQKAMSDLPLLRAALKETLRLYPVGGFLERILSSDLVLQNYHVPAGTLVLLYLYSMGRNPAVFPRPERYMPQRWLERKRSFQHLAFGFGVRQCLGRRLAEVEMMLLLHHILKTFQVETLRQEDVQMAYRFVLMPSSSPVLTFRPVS
Description: Inhibition of mouse CYP11B2 expressed in renal leiomyoblastoma cells

The term pIC50 denotes the IC50 on a negative log10 scale, so that one unit is a factor of ten. One may read the inhibition as the share of the control response that was lost under treatment. Lower therefore signals a weak effect. By logD is commonly meant the decadic logarithm of the distribution of all forms, ionised or not, between an organic phase and buffer at a given pH. Lower therefore signals a more hydrophilic compound. As a reminder, the solubility is the dissolved amount per volume that the medium holds. Higher therefore signals a readily soluble substance. The Papp is the rate of passage across a membrane or cell layer, normalised by area and donor concentration.

`N#Cc1ccc(-c2cccnc2)cc1`: the pIC50 in data set [1] is 7.40. In addition, the CL in data set [2] was 53 µg/min; in [3] it was less than 10 µg/min; in data set [4] it was less than 10 µg/min.

Compound `O=C1CCc2cc(-c3cncc4ccccc34)ccc2N1` displayed an inhibition at 0.5 µM in data set [5] of 65%.

On to `COC(=O)[C@@H]1CC2=CC(=O)CC[C@]2(C)[C@@]23O[C@@H]2C[C@@]2(C)[C@@H](CC[C@@]24CCC(=O)O4)[C@H]13`, for which the outcome in data set [6], in data set [7] and in [8] was Active.

With `N#Cc1ccc(-c2cncc3c2CCCC3N)cc1` (racemic), the pIC50 in data set [1] is 7.38. Further, the CL is 12 µg/min in [2], less than 10 µg/min in [3] and less than 10 µg/min in [4].

As to `CC(=O)NC1CCCc2c(-c3ccc(C#N)cc3)cncc21` (racemic), the pIC50 in data set [1] was 7.68; in data set [9], less than 4.30; in data set [10] it was less than 4.30; in [11], less than 4.30. In addition, the CL in data set [2], in data set [3] and in data set [4] was less than 10 µg/min each time. In data set [12], this compound registered a logD of 1.8. In [13], this compound came in with a solubility of 415 µg/mL (≈ 1420 µM). Moreover, the Papp in [14] was more than 4.4 ×10⁻⁶ cm/s.

Take `CC(C)C(=O)NC1CCCc2c(-c3ccc(C#N)cc3)cncc21` (racemic): the pIC50 in data set [9], in [10] and in [11] was less than 4.30 in each case. Besides, the CL in [2], in data set [3] and in data set [4] was less than 10 µg/min throughout. Besides, in data set [12], the logD worked out at 2.6. This compound showed a solubility in data set [13] of 90 µg/mL (≈ 282 µM). In data set [14], this compound returned a Papp of more than 4.4 ×10⁻⁶ cm/s.

On to `CCC(=O)NC1CCCc2c(-c3ccc(F)c(F)c3)cncc21` (racemic), for which, in data set [1], the pIC50 was 7.33. Further, the CL in data set [2] was 17 µg/min; in data set [3], less than 10 µg/min; in data set [4], 85 µg/min. The same compound registered a logD in data set [12] of 3. In addition, the concentration in solution in data set [13] (solubility) was 310 µg/mL (≈ 980 µM). This compound registered a Papp in data set [14] of more than 4 ×10⁻⁶ cm/s.

On to `CCC(=O)NC1CCCc2c(-c3cc(F)c(F)cc3F)cncc21` (racemic), for which the pIC50 in data set [1] was 7.57. In addition, the CL is less than 10 µg/min in [2], less than 10 µg/min in [3] and 78 µg/min in [4]. The same compound showed a logD in [12] of 3.1. This compound also showed a solubility in data set [13] of 239 µg/mL (≈ 715 µM). The compound also returned a Papp in data set [14] of more than 4 ×10⁻⁶ cm/s.

In data set [1], `CCC(=O)NC1CCCc2c(-c3ccc(Cl)cc3F)cncc21` (racemic) had a pIC50 of 7.55. Also, the CL was 21 µg/min in [2], less than 10 µg/min in data set [3] and 46 µg/min in data set [4]. In [12], the logD was determined as 3.6. In data set [13], this compound had a solubility of 129 µg/mL (≈ 388 µM). The Papp in data set [14] was more than 4 ×10⁻⁶ cm/s.

`CCC(=O)NC1CCCc2c(-c3ccc(Cl)c(F)c3)cncc21` (racemic) had a pIC50 in data set [1] of 7.85. The CL in [2] was 36 µg/min; in [3] it was less than 10 µg/min; in data set [4] it was 31 µg/min. In data set [12], the logD was determined as 3.6. Also, the concentration in solution in data set [13] (solubility) was 99 µg/mL (≈ 297 µM). The compound also gave a Papp in [14] of more than 4 ×10⁻⁶ cm/s.

In data set [15], `N#Cc1ccc([C@H]2CCc3cncn32)c(F)c1` [OSILODROSTAT] had a pIC50 of 6.68.
